Measurements taken from patent US8106003B2, “Peptides and methods for the treatment of inflammatory disease” (Auckland Uniservices Limited, priority 2004, dated 2012).

Columns and labels:
[1] = test system: tyrosine phosphorylation of β7cyt; test: In vitro kinase assay of GST-β7cyt fusion protein with H9 cell lysate; assay type: biochemical, human; settings: genistein at 20 μM; H9 cell lysate 1:100
Procedure: Phosphorylation of recombinant GST fusion protein encoding β7cyt. H9 cells (5×10^7) were lysed at 4° C. in 1 ml of lysis buffer (10 mM Tris pH 7.4, 50 mM NaCl, 50 mM NaF, 1 mM sodium orthovanadate, 300 μg/ml PMSF, 20 μg/ml aprotinin, 10 μg/ml leupeptin, and 1% NP-40), centrifuged, and the supernatant precleared with GST-Sepharose. A GST fusion protein (50 μg) encoding the β7 subunit cytoplasmic domain bound to glutathione-Sepharose was incubated with trace amounts (1:100 dilution) of precleared lysate for 2 h at 4° C. The beads were washed thrice with lysis buffer and thrice with kinase buffer (10 mM Tris pH 7.4, 50 mM NaCl, 5 mM MgCl2, 5 mM MnCl2, 0.1 mM Na3VO4), and incubated in 30 μl kinase buffer containing 0.5 μCi [^32P] γATP for 20 min at 30° C. The sample was subjected to SDS-PAGE on a 10% acrylamide gel. The gel was stained with Coomassie Blue to visualize the GST fusion protein, and treated with 1 M KOH at 55° C. for 2 h to remove alkali-labile phosphate moieties on serine and threonine. The gel was dried, and subjected to autoradiography.

[2] = test system: β2 integrin (αLβ2)-mediated adhesion of H9 cells to ICAM-1; test: Cell adhesion assay: H9 cells to ICAM-1-Fc (integrin specificity); assay type: cell-based, human; settings: Mn++-activated H9 cells
Procedure: Cell adhesion assays. Lab-Tek 16-well glass slides (Nunc) or flat-bottomed 96-well maxisorb plates (Nunc) were coated with purified mouse MAdCAM-1-Fc, human VCAM-1-Fc, and human ICAM-1-Fc (70 to 100 μl of 5 to 10 μg/ml), and incubated at 4° C. overnight. Slides were washed once with PBS, and blocked with FCS for 2 h at room temperature. Slides were washed with Hanks balanced salt solution (HBSS) containing 10 mM Hepes. Cells were either left unlabeled or labeled with the fluorescent dye chloromethyl fluorescein diacetate (CMFDA; Molecular Probes, Oregon), and activated by resuspension in HBSS containing 10 mM Hepes supplemented with 2 mM Ca^++ and 2 mM Mn^++. Cells were alternatively activated with 50 ng/ml PMA, or by incubating with AlF4^− (10 mM NaF and 40 µM AlCl3). They were preincubated with peptides at different concentrations for 10 min at room temperature, checked for viability by trypan blue exclusion, and then 10^6 cells added to each coated well and left to adhere for 30 min at room temperature. […] The number of adherent cells was determined by counting the number of adherent cells in four independent fields at 100× magnification under an inverted microscope. […] The fluorescence of CMFDA-labeled adherent cells was measured using a VICTOR 1420 multilabel counter (Wallac). […]

Compound	blockade of phosphorylation of β7cyt [1]	inhibition of H9 cell binding to ICAM-1 [2]
O=c1c(-c2ccc(O)cc2)coc2cc(O)cc(O)c12 [genistein]	completely blocked	–
YDDREY: cell permeable YDRREY (SEQ ID NO. 1) peptide, carrier not stated at this place	–	neither the cell permeable YDDREY (SEQ ID NO. 1) peptide nor the β3 CARD were able to block
